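Growth conditions: 96-well plates. Treatment: test compound, 48 hours, 5 concentrations. Analysis: linear interpolation between bracketing concentrations; unreached endpoints set to highest concentration. GI50: concentration for 50% inhibition of growth.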 Active and inactive are the calls of the source. No stated cut-off is given here; in the data, active = GI50 up to about 1.1 µM and inactive = higher.
Assays:
Test in all cases: NCI-60 cell line screen, 48 h
TK-10 = test system: TK-10
A498 = test system: A498
K562 = test system: K562
SK-MEL-28 = test system: SK-MEL-28
MDA-MB-231 = test system: MDA-MB-231
IGROV-1 = test system: IGROV-1
NCI-H460 = test system: NCI-H460
SF-539 = test system: SF-539
NCI-H23 = test system: NCI-H23
PC-3 = test system: PC-3
SK-MEL-2 = test system: SK-MEL-2
A549 = test system: A549
MOLT-4 = test system: MOLT-4
RXF 393 = test system: RXF 393
OVCAR-4 = test system: OVCAR-4
U-251 = test system: U-251
SF-295 = test system: SF-295
T47D = test system: T47D
EKVX = test system: EKVX
HCT-15 = test system: HCT-15

Structure (SMILES) | GI50 (TK-10) | GI50 (A498) | GI50 (K562) | GI50 (SK-MEL-28) | GI50 (MDA-MB-231) | GI50 (IGROV-1) | GI50 (NCI-H460) | GI50 (SF-539) | GI50 (NCI-H23) | GI50 (PC-3) | GI50 (SK-MEL-2) | GI50 (A549) | GI50 (MOLT-4) | GI50 (RXF 393) | GI50 (OVCAR-4) | GI50 (U-251) | GI50 (SF-295) | GI50 (T47D) | GI50 (EKVX) | GI50 (HCT-15) [µM]
O=C(O)CN1C=C(C(=O)c2cc3ccccc3n2S(=O)(=O)c2ccccc2)CCC1 | > 100 µM (inactive) | 69.3 µM (inactive) | 24.2 µM (inactive) | > 100 µM (inactive) | > 100 µM (inactive) | 37.2 µM (inactive) | 96.2 µM (inactive) | 39.7 µM (inactive) | 50.6 µM (inactive) | 50.4 µM (inactive) | 87.5 µM (inactive) | 68.1 µM (inactive) | 38.5 µM (inactive) | 54.5 µM (inactive) | 83.9 µM (inactive) | 76.7 µM (inactive) | 69.5 µM (inactive) | 28.6 µM (inactive) | 54.8 µM (inactive) | 49.2
Nn1c(SCC(=O)NCc2ccccc2)nc2ccccc2c1=O | 41.5 µM (inactive) | 61.2 µM (inactive) | 27.8 µM (inactive) | 92.5 µM (inactive) | 57.8 µM (inactive) | 53.3 µM (inactive) | 46.3 µM (inactive) | > 100 µM (inactive) | 82.8 µM (inactive) | 54.7 µM (inactive) | 76.7 µM (inactive) | 31.3 µM (inactive) | 19.1 µM (inactive) | 34.1 µM (inactive) | 54.2 µM (inactive) | 88.9 µM (inactive) | 48.6 µM (inactive) | > 100 µM (inactive) | 64.3 µM (inactive) | 67.8
CN(C)CC(C)(C)CN1c2ccccc2Sc2ccccc21 | 13.9 µM (inactive) | 13.6 µM (inactive) | 8.55 µM (inactive) | 13.5 µM (inactive) | 12 µM (inactive) | 14.9 µM (inactive) | 13.5 µM (inactive) | 19.7 µM (inactive) | 16.4 µM (inactive) | 12.9 µM (inactive) | 15.4 µM (inactive) | 15.5 µM (inactive) | 6.55 µM (inactive) | 2.12 µM (inactive) | 12.9 µM (inactive) | 13.6 µM (inactive) | 13.8 µM (inactive) | 14.2 µM (inactive) | 15.4 µM (inactive) | > 100
O=C(/C=C/c1ccc(OCC(=O)N2CCN(c3ccccc3)CC2)cc1)c1ccc(Cl)cc1 | 31.6 µM (inactive) | 23.4 µM (inactive) | > 100 µM (inactive) | > 100 µM (inactive) | 25.5 µM (inactive) | 38.6 µM (inactive) | > 94.2 µM (inactive) | 19 µM (inactive) | 50.4 µM (inactive) | > 91.8 µM (inactive) | 36.5 µM (inactive) | 38.7 µM (inactive) | > 100 µM (inactive) | 21.9 µM (inactive) | 32.6 µM (inactive) | 15.7 µM (inactive) | 18.6 µM (inactive) | 52.7 µM (inactive) | > 60.7 µM (inactive) | > 100
O=C(/C=C\Nc1ccccc1O)C(Cl)(Cl)Cl | 78.5 µM (inactive) | 35.6 µM (inactive) | 36.7 µM (inactive) | 43.1 µM (inactive) | > 100 µM (inactive) | 43.4 µM (inactive) | 53.7 µM (inactive) | 56.2 µM (inactive) | 35.7 µM (inactive) | 37.7 µM (inactive) | 43.2 µM (inactive) | 48.2 µM (inactive) | 27.7 µM (inactive) | 33.5 µM (inactive) | 39.1 µM (inactive) | 26.9 µM (inactive) | 3.87 µM (inactive) | 28 µM (inactive) | 45.7 µM (inactive) | 38.5
C=CCN(C(C)=O)c1cc(OCc2ccccc2)c2c(c1)c(C)cn2S(=O)(=O)c1ccccc1 | 39.6 µM (inactive) | 5.16 µM (inactive) | 2.83 µM (inactive) | 21.2 µM (inactive) | 6.98 µM (inactive) | 10 µM (inactive) | 4.75 µM (inactive) | 11.5 µM (inactive) | 7.8 µM (inactive) | 4.21 µM (inactive) | 3.11 µM (inactive) | 4.06 µM (inactive) | 2.67 µM (inactive) | 4.74 µM (inactive) | 5.42 µM (inactive) | 4.98 µM (inactive) | 3.94 µM (inactive) | 3.26 µM (inactive) | 8.85 µM (inactive) | 4.79
CCN(CC)/[N+]([O-])=N/OCOC | > 100 µM (inactive) | > 100 µM (inactive) | > 100 µM (inactive) | > 100 µM (inactive) | > 100 µM (inactive) | > 100 µM (inactive) | > 100 µM (inactive) | > 100 µM (inactive) | > 100 µM (inactive) | > 100 µM (inactive) | > 100 µM (inactive) | > 100 µM (inactive) | > 100 µM (inactive) | > 100 µM (inactive) | > 100 µM (inactive) | > 100 µM (inactive) | > 100 µM (inactive) | > 100 µM (inactive) | > 100 µM (inactive) | > 100
CCOC(=O)c1ccc(-c2cc(C)no2)[nH]1 | > 100 µM (inactive) | 63.7 µM (inactive) | 32.5 µM (inactive) | > 100 µM (inactive) | 76 µM (inactive) | > 100 µM (inactive) | 33.8 µM (inactive) | > 100 µM (inactive) | > 100 µM (inactive) | 83.8 µM (inactive) | > 100 µM (inactive) | 51.5 µM (inactive) | 42.1 µM (inactive) | > 100 µM (inactive) | 74.6 µM (inactive) | 98.4 µM (inactive) | > 100 µM (inactive) | 68.5 µM (inactive) | 41.7 µM (inactive) | 30.2
CC1=C(C(=O)Nc2cccc3c2C(=O)NC3=O)CC(C(=O)Nc2cccc3c2C(=O)NC3=O)=C(C)N1 | > 100 µM (inactive) | > 100 µM (inactive) | > 100 µM (inactive) | > 100 µM (inactive) | > 100 µM (inactive) | > 100 µM (inactive) | > 100 µM (inactive) | > 100 µM (inactive) | > 100 µM (inactive) | > 100 µM (inactive) | > 100 µM (inactive) | > 100 µM (inactive) | > 100 µM (inactive) | > 100 µM (inactive) | > 100 µM (inactive) | > 100 µM (inactive) | > 100 µM (inactive) | > 100 µM (inactive) | > 100 µM (inactive) | > 100
COc1cc([C@@H]2c3cc4c(cc3[C@@H](Nc3ccccc3C(=O)c3ccccc3)[C@H]3COC(=O)[C@H]23)OCO4)cc(OC)c1OC | > 100 µM (inactive) | 0.149 µM (active) | 0.35 µM (active) | 0.472 µM (active) | 1.81 µM (inactive) | 0.836 µM (active) | 0.442 µM (active) | 0.259 µM (active) | 0.668 µM (active) | 0.622 µM (active) | > 100 µM (inactive) | 0.753 µM (active) | 0.38 µM (active) | 0.459 µM (active) | > 27.2 µM (inactive) | 0.362 µM (active) | 0.376 µM (active) | > 100 µM (inactive) | > 54.6 µM (inactive) | 0.444
